How the values were obtained:
[1] = system: HPV-expressing CaSki cells; assay: Rescue treatment: cytolytic function of chronically stimulated eTCR T cells; assay type: cell-based, human; details: 100 nM, 2.5:1 effector:target, 10 or 20 μg/mL anti-Vbeta chronic stimulation
Excerpt: Primary human CD4+ and CD8+ T cells were isolated from healthy donors by immunoaffinity-based methods. The isolated CD4+ and CD8+ T cells were combined and stimulated with an anti-CD3/anti-CD28 reagent, and then were transduced with a lentiviral vector encoding an anti-human papillomavirus 16 (anti-HPV16) eTCR. The nucleotide sequences encoding the beta chain and the alpha chain of the eTCR were separated by a sequence encoding a 2A ribosome skip element. Following transduction, the cells were cultured in media containing human serum and cytokines for 9-10 days prior to further assessment.
To assess the effects of rescue treatment with Compound 17 on cytolytic function, eTCR cells were stimulated for six days using 10 μg/mL or 20 μg/mL plate-bound antibody against the TCR Vbeta chain in the absence of Compound 17.
Following chronic stimulation, the eTCR-T cells were co-cultured with HPV-expressing CaSki cells at a 2.5:1 effector:target ratio in the presence of Compound 17 at 100 nM. As a control, chronically stimulated eTCR cells were co-cultured with CaSki cells in the absence of Compound 17. The CaSki cells were transduced with NucLight Red (NLR) and tumor cell number was monitored by Incucyte®.

[2] = system: engineered T cells for the T cell therapy; assay: In vivo anti-tumor effects and CAR T cell expansion/persistence with continuous DGKi dosing (summary of observations)
Excerpt: Without wishing to be limited by a specific mechanism of action, the results shown herein are consistent with a finding that the continuous presence of the DGKi following T cell therapy administration may prevent or reduce exhaustion in T cells of the T cell therapy, thereby improving T cell anti-tumor activity and proliferative capacity following administration.

[3] = system: Raji lymphoma tumor cells; assay: In vivo anti-tumor effect of dosing regimens with anti-CD19 CAR T cells, Raji-rFluc NSG mice (Example 6)
Method: The in vivo anti-tumor effects of different dosing regimens for Compound 17 in combination with anti-CD19 CAR T cells were assessed.
Following CAR-T cell administration, mice received one of three different Compound 17 dosing regimens or a vehicle control (n=8 per group). Specifically, mice received Compound 17 or vehicle control once daily (i) on Days 1-14 (“Early”), (ii) on Days 14-42 (“Delayed”), or (iii) on Days 1-28 (“Continuous”) of the combination therapy. All doses of Compound 17 were 0.3 mg/kg and were administered orally. […] Flow cytometry for assessing CD4:CD8 ratio was performed at Day 15.

[4] = system: K562.CD19 cells; assay: Rescue treatment: cytolytic activity of chronically stimulated CAR-T cells, 2D, K562.CD19; assay type: cell-based, human; details: higher concentrations, 2D co-culture
[5] = system: Raji-rFluc cells
Method: For assessing in vivo anti-tumor effects, immunodeficient NSG mice were injected intravenously with 0.5×10^6 Raji-rFluc cells. […] This dose of CAR-expressing T cells was not expected to achieve complete tumor rejection.
For assessing tumor burden by bioluminescence imaging, mice received intraperitoneal injections of luciferin substrate resuspended in phosphate-buffered saline. Tumor burden and survival of treated mice were assessed until Day 50. In addition, flow cytometry for assessing circulating CAR T cell number and CD4 and CD8 expression was performed on Days 5, 12, 19, and 26. CAR expression was assessed using an anti-idiotypic (anti-ID) antibody specific for the CAR.

[6] = system: anti-CD19 CAR-T cells with K562.CD19, Granta-519 and Raji cells; assay: CAR-T cell cytokine production in co-culture (MSD); assay type: cell-based, human
[7] = system: Nalm6-rFluc cells; assay: Tumor cell re-challenge after CAR T cell combination, Nalm6-rFluc (Example 11); assay type: in vivo, NSG mice
Method: Mice in Example 10 who received the CAR T cell combination with continuous Compound 17 dosing regimen were re-challenged by intravenous injection of 5×10^6 Nalm6-rFluc cells on Day 71. For comparison, 5×10^6 Nalm6-rFluc cells were intravenously injected into naive mice that had not previously been injected with or administered Nalm6-rFluc cells, CAR T cells, or Compound 17 (n=4 per group). […] Tumor burden was assessed for 10 days following re-challenge. Survival of treated mice was assessed until 30 days post re-challenge.

[8] = system: anti-CD19 CAR-T cells; assay: CAR-T cell viability; assay type: cell-based, human; details: acute stimulation assays
Excerpt: T cell compositions containing T cells expressing an exemplary anti-CD19 CAR were generated from leukapheresis samples from two healthy human adult donors by a process that included immunoaffinity-based selection of T cells by separately selecting CD4+ and CD8+ cells from the samples, resulting in two compositions enriched for CD4+ and CD8+ cells, respectively, per donor. Cells of the enriched CD4+ and CD8+ compositions were separately activated with anti-CD3/anti-CD28 beads and subjected to lentiviral transduction with a vector encoding an anti-CD19 CAR. […]
Prior to use, the cryopreserved CD4+ and CD8+ CAR-engineered cell compositions were thawed and combined at approximately a 1:1 CD4:CD8 ratio for each donor to prepare a combined CD4+ CAR+ and CD8+ CAR+ T cell composition. The effects of treatment with Compound 17 at various concentrations (0.1 nM, 1 nM, 10 nM, 100 nM, or 1000 nM) added at day 0 during stimulation of the combined CAR-T cell composition with a plate-bound CAR-specific anti-idiotypic antibody (see, e.g., WO2018/023100) or during co-culture with CD19-expressing cells was then assessed.

[9] = 0.3 mg/kg oral once daily from Day 1, relative to vehicle
[10] = Compound 17: 0.3 mg/kg oral once daily Days 1-30 with CAR T cells, or KO CAR T cells
[11] = Compound 17: 0.3 mg/kg oral once daily Days 1-30 with CAR T cells, or KO CAR T cells, vs CAR T cells without DGK KO alone

CC[C@H]1CN([C@@H](CC)c2ccc(C(F)(F)F)cc2)[C@H](CC)CN1c1nc(=O)n(C)c2ccc(C#N)nc12 [Compound 17, 4-((2S,5R)-2,5-diethyl-4-((S)-1-(4-(trifluoromethyl)phenyl)propyl)piperazin-1-yl)-1-methyl-2-oxo-1,2-dihydropyrido[3,2-d]pyrimidine-6-carbonitrile]
cytolytic function of chronically stimulated eTCR cells [1]: able to improve cytolytic function of chronically stimulated eTCR cells | in vivo anti-tumor effects ([2]; continuous dosing, at least once daily for a plurality of consecutive days, with engineered T cells): improves in vivo anti-tumor effects | CAR T cell expansion and/or persistence ([2]; continuous presence of DGKi beginning on same day as T cell therapy): can improve CAR T cell expansion and/or persistence, in particular that of CD4+ CAR T cells | tumor suppression (tumor control index), Early regimen ([3]; 0.3 mg/kg oral once daily Days 1-14 with CAR T cells, relative to vehicle): enhanced tumor suppression | survival, Continuous regimen ([3]; 0.3 mg/kg oral once daily Days 1-28 with 1×10^6 CAR T cells): improved survival | tumor burden, Continuous regimen ([3]; 0.3 mg/kg oral once daily Days 1-28 with CAR T cells): reduced tumor burden | tumor suppression (tumor control index), Continuous regimen ([3]; 0.3 mg/kg oral once daily Days 1-28 with CAR T cells, relative to vehicle): enhanced tumor suppression | tumor suppression (tumor control index), Delayed regimen ([3]; 0.3 mg/kg oral once daily Days 14-42 with CAR T cells, relative to vehicle): did not | CAR T cell expansion, Day 15, Early or Continuous regimen [3, 9]: increased CAR T cell expansion | CD4:CD8 ratio, Day 15, Early or Continuous regimen [3, 9]: increase in CD4:CD8 ratio | CAR T cell expansion and CD4:CD8 ratio, Day 15, Delayed regimen ([3]; single 0.3 mg/kg oral dose, relative to vehicle): did not | cytolytic activity of CAR T cells against K562.CD19 cells [4]: improved the cytolytic activity of CAR T cells against K562.CD19 and Granta-519 cells | CAR T cell expansion and/or persistence [5, 10]: improved CAR T cell expansion and/or persistence | tumor burden [5, 10]: tumor burden was reduced | anti-tumor efficacy (tumor control index) [5, 11]: improved anti-tumor efficacy | survival [5, 11]: improved survival | tumor burden, survival, and CAR T cell expansion and/or persistence vs DGKα/ζ dual KO CAR T cells ([5]; continuous DGKi administration with CAR T cells): comparable to those achieved with administration of DGKα/ζ dual KO CAR T cells | production of IFNγ, IL-2 and TNFα ([6]; 48 h co-culture with K562.CD19, Granta-519, Raji): dose-dependent increase in production of all three cytokines | cytokine production, particularly IL-2, greatest effect ([6]; higher concentrations of Compound 17, Granta-519 cells (low CD19)): greatest effect during co-culture with Granta-519 cells | survival after re-challenge ([7]; re-challenge Day 71 after CAR T + Compound 17, until 30 days post re-challenge): survival benefit | tumor growth after re-challenge ([7]; re-challenge Day 71 after CAR T + Compound 17, vs naive mice): delayed tumor growth | T cell viability [8]: no impact of Compound 17 on T cell viability was observed
